The values below come from ChEMBL document CHEMBL3608294, “Epoxylathyrol Derivatives: Modulation of ABCB1-Mediated Multidrug Resistance in Human Colon Adenocarcinoma and Mouse T-Lymphoma Cells” (J Nat Prod, 2015).

In data set [1] the target is T1, ATP-dependent translocase ABCB1 (Homo sapiens, UniProt P08183). As to the kind of experiment: Inhibition of ABCB1 in multidrug resistant human COLO320 cells assessed as fluorescence activity ratio at 20 uM incubated for 10 mins by flow cytometry based rhodamine-123 accumulation assay (reference value: 0.62). In general terms: A flow cytometer gives signals particle by particle.

Data set [2] deals with T1, ATP-dependent translocase ABCB1. Description: Inhibition of human ABCB1 expressed in mouse L5178Y cells assessed as fluorescence activity ratio at 0.2 uM incubated for 10 mins by flow cytometry based rhodamine-123 accumulation assay (reference value: 0.78). The data set is classed as cell-based.
Data set [3] shares this target. Description: Inhibition of ABCB1 in multidrug resistant human COLO320 cells assessed as fluorescence activity ratio at 2 uM incubated for 10 mins by flow cytometry based rhodamine-123 accumulation assay (reference value: 0.62).
Data set [4] has the same target. Description: Inhibition of human ABCB1 expressed in mouse L5178Y cells assessed as fluorescence activity ratio at 2 uM incubated for 10 mins by flow cytometry based rhodamine-123 accumulation assay (reference value: 0.78). It is filed as cell-based.
The target is the same in data set [5]. As to the kind of experiment: Inhibition of human ABCB1 expressed in mouse L5178Y cells assessed as fluorescence activity ratio at 20 uM incubated for 10 mins by flow cytometry based rhodamine-123 accumulation assay (reference value: 0.78). The data set is classed as cell-based.
Data set [6] concerns COLO 205. Description: Cytotoxicity against chemosensitive human COLO205 cells incubated for 24 hrs by MTT assay. It is filed as functional, cell-based. The following applies: COLO 205, 24 h. In general terms: Tetrazolium dyes change colour on reduction, which living cells bring about.
Data set [7] in a line: Antiproliferative activity against chemosensitive human COLO205 cells incubated for 72 hrs by MTT assay. The following applies: COLO 205, 72 h. It is filed as functional, cell-based.
The target of data set [8] is T1, ATP-dependent translocase ABCB1. As to the kind of experiment: Inhibition of ABCB1 in multidrug resistant human COLO320 cells assessed as fluorescence activity ratio at 0.2 uM incubated for 10 mins by flow cytometry based rhodamine-123 accumulation assay (reference value: 0.62).
Data set [9] deals with L5178Y. Description: Antiproliferative activity against human ABCB1 expressing mouse L5178Y cells incubated for 72 hrs by MTT assay. It is filed as functional, cell-based.
Data set [10] deals with L5178Y. As to the kind of experiment: Cytotoxicity against chemosensitive wild type parental mouse L5178Y cells incubated for 24 hrs by MTT assay. The data set is classed as functional, cell-based.
The test system of data set [11] is L5178Y. As to the kind of experiment: Antiproliferative activity against chemosensitive wild type parental mouse L5178Y cells incubated for 72 hrs by MTT assay. The data set is classed as functional, cell-based.
Data set [12] in a line: Cytotoxicity against multidrug resistant human COLO320 cells incubated for 24 hrs by MTT assay. The following applies: COLO 320, 24 h. The data set is classed as functional, cell-based.
Data set [13] has as its target T1, ATP-dependent translocase ABCB1. Description: Inhibition of human ABCB1 expressed in mouse L5178Y cells assessed as potentiation of 2 mg/ml doxorubicin-induced cytotoxicty by measuring combination index at 4:1 compound to doxorubicin ratio incubated for 48 hrs by MTT assay. The data set is classed as cell-based.
A short description of data set [14]: Antiproliferative activity against multidrug resistant human COLO320 cells incubated for 72 hrs by MTT assay. The data set is classed as functional. The following applies: COLO 320, 72 h.
Data set [15] has as its system L5178Y. Description: Cytotoxicity against human ABCB1 expressing mouse L5178Y cells incubated for 24 hrs by MTT assay. The data set is classed as functional, cell-based.
The nature of data set [16]: Selectivity index, ratio of cytotoxic IC50 for chemosensitive human COLO205 cells to cytotoxic IC50 for multidrug resistant human COLO320 cells. The data set is classed as functional, COLO 205.
The target in data set [17] is T1, ATP-dependent translocase ABCB1. Description: Inhibition of human ABCB1 expressed in mouse L5178Y cells assessed as potentiation of 2 mg/ml doxorubicin-induced cytotoxicty by measuring combination index at 5:1 compound to doxorubicin ratio incubated for 48 hrs by MTT assay. The data set is classed as cell-based.
The target is the same in data set [18]. Description: Non-competitive inhibition of human ABCB1 expressed in Sf9 cell membrane vesicles assessed as reduction in verapamil transport at >25 uM using MgATP by colorimetric ATPase assay.
The target is the same in data set [19]. As to the kind of experiment: Non-competitive inhibition of human ABCB1 expressed in Sf9 cell membrane vesicles assessed as reduction in vanadate-sensitive ATPase activity at >25 uM using MgATP by colorimetric ATPase assay.
Data set [20] has the same target. As to the kind of experiment: Activation of human ABCB1 expressed in Sf9 cell membrane vesicles assessed as inorganic phosphate release at 0.8 uM to 100 uM using MgATP by colorimetric ATPase assay.
Data set [21] deals with L5178Y. Description: Selectivity index, ratio of cytotoxic IC50 for wild type parental mouse L5178Y cells to cytotoxic IC50 for human ABCB1 expressing mouse L5178Y cells. It is filed as functional.
The subject of data set [22] is L5178Y. Description: Selectivity index, ratio of antiproliferative IC50 for wild type parental mouse L5178Y cells to antiproliferative IC50 for human ABCB1 expressing mouse L5178Y cells. The data set is classed as functional.
A short description of data set [23]: Selectivity index, ratio of antiproliferative IC50 for chemosensitive human COLO205 cells to antiproliferative IC50 for multidrug resistant human COLO320 cells. It is filed as functional, COLO 205.
Data set [24] deals with T1, ATP-dependent translocase ABCB1. Description: Inhibition of human ABCB1 expressed in mouse L5178Y cells assessed as potentiation of 2 mg/ml doxorubicin-induced cytotoxicty at 7:1 compound to doxorubicin ratio incubated for 48 hrs by MTT assay. The data set is classed as cell-based.
The target is the same in data set [25]. As to the kind of experiment: Inhibition of human ABCB1 expressed in Sf9 cell membrane vesicles assessed as reduction in verapamil transport at 0.8 uM to 100 uM using MgATP by colorimetric ATPase assay relative to control.
The target is the same in data set [26]. As to the kind of experiment: Inhibition of human ABCB1 expressed in Sf9 cell membrane vesicles assessed as reduction in verapamil transport at 0.8 uM to 100 uM using MgATP by colorimetric ATPase assay.
Data set [27] shares this target. As to the kind of experiment: Inhibition of human ABCB1 expressed in mouse L5178Y cells assessed as potentiation of 2 mg/ml doxorubicin-induced cytotoxicty at 9:1 compound to doxorubicin ratio incubated for 48 hrs by MTT assay. The data set is classed as cell-based.

pIC50: −log10 of the molar value. Bounds are passed on as bounds.

T1 sequence (P08183 whole entry): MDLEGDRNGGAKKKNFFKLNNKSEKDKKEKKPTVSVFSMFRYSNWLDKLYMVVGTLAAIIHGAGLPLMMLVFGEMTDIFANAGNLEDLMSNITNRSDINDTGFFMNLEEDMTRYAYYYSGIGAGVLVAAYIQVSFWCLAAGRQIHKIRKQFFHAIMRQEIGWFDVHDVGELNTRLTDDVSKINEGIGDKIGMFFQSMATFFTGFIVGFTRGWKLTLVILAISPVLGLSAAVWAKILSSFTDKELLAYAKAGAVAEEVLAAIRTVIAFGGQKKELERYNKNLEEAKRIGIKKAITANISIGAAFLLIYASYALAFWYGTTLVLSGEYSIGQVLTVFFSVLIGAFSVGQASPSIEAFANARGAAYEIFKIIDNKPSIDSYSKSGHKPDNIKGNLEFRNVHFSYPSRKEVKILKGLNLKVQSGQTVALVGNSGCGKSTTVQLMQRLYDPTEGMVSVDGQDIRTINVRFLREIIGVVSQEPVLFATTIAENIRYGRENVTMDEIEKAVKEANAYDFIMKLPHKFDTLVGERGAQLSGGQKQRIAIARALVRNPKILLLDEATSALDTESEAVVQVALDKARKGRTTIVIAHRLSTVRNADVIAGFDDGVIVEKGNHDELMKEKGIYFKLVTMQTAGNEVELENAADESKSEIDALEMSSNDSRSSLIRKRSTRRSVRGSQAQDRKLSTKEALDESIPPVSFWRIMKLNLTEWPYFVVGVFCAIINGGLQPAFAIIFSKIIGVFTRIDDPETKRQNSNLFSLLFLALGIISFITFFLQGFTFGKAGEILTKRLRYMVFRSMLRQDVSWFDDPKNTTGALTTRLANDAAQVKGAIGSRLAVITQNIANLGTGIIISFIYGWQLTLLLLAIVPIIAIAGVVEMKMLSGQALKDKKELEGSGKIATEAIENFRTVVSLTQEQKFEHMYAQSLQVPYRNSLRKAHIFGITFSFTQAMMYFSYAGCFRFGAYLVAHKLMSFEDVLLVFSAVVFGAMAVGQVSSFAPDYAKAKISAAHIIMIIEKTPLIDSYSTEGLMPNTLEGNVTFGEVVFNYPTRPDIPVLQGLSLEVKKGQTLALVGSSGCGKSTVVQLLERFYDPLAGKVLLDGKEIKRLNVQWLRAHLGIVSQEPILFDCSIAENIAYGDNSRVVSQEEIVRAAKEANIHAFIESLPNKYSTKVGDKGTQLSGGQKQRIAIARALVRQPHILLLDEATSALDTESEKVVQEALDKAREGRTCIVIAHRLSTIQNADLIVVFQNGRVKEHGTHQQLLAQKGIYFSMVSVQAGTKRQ

For `C/C1=C\[C@@H]2[C@H](CC[C@]3(CO3)[C@H](OC(=O)c3ccc4ccccc4c3)[C@H]3[C@@H](OC(=O)c4ccc5ccccc5c4)[C@@H](C)C[C@]3(O)C1=O)C2(C)C`, the Ratio in data set [1] was found to be 5.06; in [2] it was 13.67; in data set [3], 5.83; in [4] it was 58.84; in [5] it was 66.52; in [8], 2.54. The pIC50 in data set [6], in data set [7], in data set [9], in data set [10], in [11] and in data set [12] was below 4.00 in each case. For the same molecule, the pIC50 in data set [14] and in data set [15] was below 4.00 throughout. Moreover, the CI in data set [13] stood at 0.233.

`C/C1=C\[C@@H]2[C@H](CC[C@]3(CO3)[C@H](OC(=O)c3cccs3)[C@H]3[C@@H](OC(=O)c4cccs4)[C@@H](C)C[C@]3(O)C1=O)C2(C)C`: the Ratio in data set [1] was 12.16; in data set [3], 8.44; in data set [4], 31.06; in [5], 68.74. Moreover, the “Ratio IC50” value in data set [16] is on record as above 3.99; in [21], 1.16; in data set [22], 0.81; in data set [23], below 0.19. For the same molecule, the CI in [17] is recorded as 0.196. For the same molecule, the “inhibition (INH)” value in data set [18] and in data set [19] was “Active” throughout. In addition, the negative logarithm of the IC50 (pIC50) (as a rule, −log10 of the IC50, conventionally taken in molar units) in [6] is below 4.00; in data set [7], 4.73; in [9], 4.49; in data set [10], 4.48; in [11], 4.58; in [12], 4.60. The negative logarithm of the IC50 (pIC50) in data set [14] is below 4.00; in [15], 4.55. For the same molecule, the outcome in [20] was Active.

Turning to `C/C1=C\[C@@H]2[C@H](CC[C@]3(CO3)[C@H](OC(=O)N(C)C)[C@H]3[C@@H](O)[C@@H](C)C[C@]3(O)C1=O)C2(C)C`, the Ratio was determined as 1.55 in [1], 1.03 in [3], 0.67 in data set [4] and 1.61 in data set [5]. Also, the entries for the “Ratio IC50” value in data set [16], in [21] and in [23] were below 0.41, above 100 and 1, respectively. In addition, the CI in data set [24] was determined as 0.861. The negative logarithm of the IC50 (pIC50) is 4.39 in data set [6]; 4.16 in [7]; below 4.00 in data set [9]; below 4.00 in [10]; below 4.00 in [11]; below 4.00 in data set [12]. Moreover, the results for the negative logarithm of the IC50 (pIC50) in data set [14] and in data set [15] were 4.16 and below 4.00, respectively.

With `CO[C@H]1[C@@H]2[C@H](CC[C@]3(COC(=O)c4ccccc4)O[C@@H]3[C@H]3[C@@H](OC(=O)c4ccccc4)[C@@H](C)C[C@]3(O)C(=O)[C@@H]1C)C2(C)C`, the Ratio is reported as 13.97 in data set [1]; 11.85 in [2]; 9.85 in data set [3]; 67.06 in data set [4]; 71.78 in [5]; 6.34 in data set [8]. Moreover, the CI in data set [17] worked out at 0.057. The “inhibition (INH)” value in data set [25] is 50%; in [26], “Active”. Moreover, the pIC50 in data set [7] is 5.28; in data set [9] it was 4.56; in data set [10], 4.58; in data set [11], 4.57; in [14], 5.16; in [15], 4.49. Besides, in [20], the outcome was Active. The results for the “Ratio IC50” value in data set [21], in data set [22] and in [23] were 0.8, 0.99 and 0.76, respectively.

For `COc1ccccc1C(=O)OC[C@]1(C)CC[C@H]2[C@@H](/C=C(\C)C(=O)[C@@]3(O)C[C@H](C)[C@H](OC(=O)c4ccccc4OC)[C@@H]3[C@H]1O)C2(C)C`, the Ratio in data set [1] was 12.35; in data set [2], 2.47; in data set [3], 4.44; in [4] it was 33.36; in [5], 55.43; in [8] it was 1.25. The “Ratio IC50” value is reported as 0.99 in data set [16], 0.77 in [21], 0.78 in data set [22] and 0.87 in data set [23]. Also, the CI in [27] turned out to be 0.051. Further, the pIC50 in data set [6] is 4.61; in [7] it was 4.81; in data set [9], 4.50; in data set [10] it was 4.52; in [11], 4.61; in [12], 4.60. For the same molecule, the pIC50 in data set [14] was 4.75; in data set [15], 4.41.
